The nature of data set [1]: Sensitivity of DHE and D-DHE to Fenton's reagent in PBS. Particulars: 50 μM probe in PBS; FIG. 4. On the procedure:
The sensitivity of deuterohydroethydium (D-DHE or DDE) was evaluated in the same manner. A 50 μM solution of DHE or D-DHE (DDE) in PBS buffer was treated with Fenton's reagent (using 1-60 nM H2O2 with Fe^2+) and the fluorescence of the oxidized product was measured.

The test system of data set [2] is rat aortic smooth muscle (RASM) cells. In words: Detection of ROS in RASM cells during Ang II mediated cell signaling. The class given is cell-based. The following applies: for background fluorescence / detection of intracellular ROS after Ang II stimulation: 10 minutes; for detection of intracellular ROS after Ang II stimulation: fluorescent microscopy. As to the method: The ability of hydrocyanines to detect ROS in rat aortic muscle (RASM) cells during angiotensin (Ang) II mediated cell signaling was evaluated using fluorescence spectroscopy. Ang II-mediated ROS production in aortic smooth muscle cells has been implicated in the development of atherosclerosis and hypertension.
[…] […] It is evident from fluorescence measurements that hydro-Cy3 is sensitive enough to detect even the ROS production by normal cells, causing relatively higher background fluorescence. On the other hand, because of the tuned reaction rate, deutero-Cy3 can only detect the overproduction of ROS during Ang-II mediated ROS over-production.
The ability of D-DHE to detect ROS in rat aortic muscle (RASM) cells during angiotensin (Ang) II mediated cell signaling was evaluated using fluorescence spectroscopy. A comparative cell-culture study between DHE and D-DHE was conducted to evaluate the ability of DHE and D-DHE to detect ROS production in rat aortic smooth muscle (RASM) cells, during angiotensin (Ang) II mediated cell signaling.
[…] […] Stimulation of RASMs with Ang II was not detected with DHE due to the high level background fluorescence.

The next data set is described as follows: physchem. The following applies: for half-life: buffer, pH 7.4. As to the method:
A solution of hydrocyanine in PBS buffer (pH 7.4) was placed in an Eppendorf tube and placed in a 37° C. water bath. Stability was measured by monitoring the formation of the oxidation product using fluorescence spectroscopy over a 24 hour period. The excitation and emission wavelengths for DHE were 515 and 590 nm.
The stability of deuterocyanines was evaluated in the same manner.

For data set [3], the system named is live, explanted mouse aortas. In words: Detection of ROS in live, explanted mouse aortas after LPS stimulation. Set-up: species or system C57B1/6 mice. Particulars: for detection of ROS in tissue explants (LPS versus PBS): confocal fluorescent imaging. As to the method:
The ability of hydrocyanines to detect ROS from live, explanted mouse aortas, after lipopolysaccharide endotoxin (LPS) stimulation to produce ROS, was evaluated. The detection of ROS in live tissue can provide information about ROS production in a physiological environment that closely resembles in vivo conditions. C57B1/6 mice were treated with either 16 mg/kg lipopolysaccharide endotoxin (LPS) or PBS for 16 hours and then euthanized. The aortas of the mice were isolated and incubated with either Hydro-Cy3 or Hydro-Cy3+TEMPOL for 15 minutes. Sections of the aorta were made, fixed with 10% formalin, and mounted en face.
For example, the fluorescence intensity of the LPS-treated slide was 183.2 RFU/S compared to 46.9 RFU/S in the PBS-treated mice. Application of TEMPOL (small molecule cell-permeable superoxide dismutase mimetic1, which attenuates superoxide anion and peroxynitrite-induced inflammation) to mouse aortas, treated with LPS, reduced the fluorescence to control levels.

In the next data set the test system is carotid arteries. In words: DHE staining of carotid artery sections after carotid ligation. Set-up: species or system Mice. Particulars: 10 μmol/L in PBS, 30 minutes at 37° C.; 14 days after ligation.
The nature of data set [4]: Fluorescence of hydrocyanines before and after reaction with superoxide (KO2). The class given is physicochemical. The following applies: for λem: emission wavelength of the corresponding oxidized product; for λex: excitation wavelength of the corresponding oxidized product; for Fold Increase in Intensity: oxidized versus reduced dye, 7.5 μM in 1 mL methanol, oxidized with 20 μL DMSO containing 20 mM KO2. On the procedure:
Superoxide (O2^−) was created by the enzymatic reaction of XA/XO (10 lm/10 mU) at 25° C. for 5 min (XA=[…]). XA/XO (10 lm/10 mU) was added to buffered solutions of Hydro-Cy3 ([…]) maintained in a 37° C. water bath. The fluorescence emission of each reaction mixture was measured at 5-min intervals against a reagent blank using a fluorescence spectrometer. In some cases solid KO2 (1 mg) or KO2 dissolved in DMSO was added to a Hydro-IR-786 solution in methanol or DMSO and the emission spectra was recorded. Alternatively, hydro-IR-786 (2 mg) was dissolved in 1 mL of ethanol and 50 μL of […] KO2 solution (7 mg KO2 was dissolved in 10 mL dimethylsulfoxide) was added and stirred for 15 min before recording the emission spectra.

The next data set has as its system RASM cells. In words: Trypan blue cell viability assay. The class given is cell-based, rat. Particulars: experimental conditions of RASM assay and higher concentrations (1 mM).
A short description of data set [5]: Sensitivity to hydroxide radical generated from H2O2 and Fe2+. On the procedure:
Hydroxide radicals were generated in situ by reacting hydrogen peroxide with Fe^2+. Various quantities of hydrogen peroxide (H2O2) stock solutions were added to a solution of hydrocyanine in methanol to generate hydrogen peroxide concentrations from about 2 to about 30 nM. Aqueous Fe^2+(1 μM) was added to the reduced dye/H2O2 solution to generate a 200 nM concentration. The resulting solution was kept at ambient temperature for 5 minutes and the fluorescence intensity was measured (λex/λem) against a reagent blank (control solution containing only reagent) simultaneously.
This measurement was carried out using 100 μM of Hydro-ICG at 25° C. The hydroxide radical was generated using the procedure described above.

The nature of data set [6]: Specificity to various reactive oxygen species. The following applies: 50 μM probe in PBS with 1% methanol; equimolar ROS; 5 minutes at 25° C.; FIG. 5. On the procedure: A 50 μm Hydro-Cy7 solution was prepared in phosphate buffered saline (PBS) containing 1% methanol. Various reactive oxygen species were added to the 50 μm Hydro-Cy7 solution, at an equimolar ratio to Hydro-Cy7, and the fluorescence intensity was recorded after incubating 5 minutes at 25° C. Superoxide (O2^−) was added as solid KO2. Stock solutions of hydrogen peroxide, t-butyl hydrogen peroxide (TBHP), hypochlorite, 3-morpholinosydnonimine (SIN-1), glutathione (GSH), and 1,4-hydroquinone were prepared and added to the Hydro-Cy7 solution to generate a final concentration of 50 μM. 3-(aminopropyl)-1-hydroxy-3-isopropyl-2-oxo-1-triazene (NOC-5, 1 mM) was prepared as a 10 mM sodium hydroxide solution and added to the Hydro-Cy7 solution to generate a final concentration of 50 μM. The hydroxide and butoxy radicals were generated in situ by reacting hydrogen peroxide and t-butylperoxide with Fe^2+. A 50 μM Hydro-Cy7 solution, in PBS, containing 500 μM Fe^2+ was prepared and either hydrogen peroxide or t-butyl hydrogen peroxide was added to this solution to generate a final concentration of 50 μM.

Data set [7] relates to ROS production generated by activated macrophages and neutrophils. In words: In vivo imaging of ROS in LPS model of acute inflammation. Also on record: species or system C57B1/6 mice. Particulars: 5 nanomoles i.p., 6 hours after LPS (1 mg i.p.); abdominal area; FIG. 7. On the procedure:
The ability of hydrocyanines to image ROS production, in vivo, generated by activated macrophages and neutrophils, in an LPS model of acute inflammation was evaluated. Nine C57B1/6 mice were divided into three groups: Group I was given an intraperitoneal (i.p.) injection of LPS (1 mg in 400 μL saline); Group II was given saline (400 μL); and Group III was untreated. After 6 hours, the mice were anaesthetized, their abdominal fur was removed, and the LPS and saline treated mice were injected i.p. with Hydro-Cy7 (5 nanomoles in 50 μL methanol). The mice were images as triplets, one from each group, using a Kodak FX in vivo images with a 700 nm excitation laser and a 790 nm emission filter. […] The mean fluorescent intensity, from the abdominal area, from the three sets of mice was also quantified using Image-Pro software. LPS-treated mice had approximately two-fold higher fluorescence intensity than the saline group.

Method for carotid arteries: Mice were anesthetized with ketamine/xylazine and their left carotid arteries were exposed and tied with a 6-0 silk suture 1 cm below the bifurcation as described in the literature. The control was sham operated mice. The mice were sacrificed 14 days after ligation and their carotid arteries were isolated and frozen, enzymatically-intact, and 30 μm-thick sections of sham operated and injured carotid arteries were made. The frozen sections were incuvated with DHE (10 μmol/L) in PBS for 30 minutes at 37° C. in a humidified chamber protected form light. DHE is oxidized on reaction with superoxide to ethidium bromide, which binds to DNA in the nucleus and fluoresces red. The DHE stained slides were imaged on a confocal microscope. The ethidium bromide fluorescence was detected using a 543 nm He—Ne laser for excitation and a 560 nm long pass filter for emission. The autofluorescence of the elastic laminae was detected using a 488 nm Ar laser for excitation combined with a 500-550 nm band pass filter for emission.

For `[2H]C1(c2ccccc2)c2cc(N)ccc2-c2ccc(N)cc2N1CC` [D-DHE, deuterohydroethydium], in data set [1], the “concentration range in which ROS is accurately measured” value lay in the range of 5 to 60 nM. Besides, the “change in fluorescence on application of TEMPOL” value in data set [2] (cells treated with probe (10 μM) and Ang II) is “dramatic decrease in fluorescence”. In addition, in data set [2] (probe 10 μM), the background fluorescence entry is on record as “very low levels of background fluorescence” and the “detection of intracellular ROS after Ang II stimulation” value (“detection of intracellular ROS” for short) is recorded as “significant increase in fluorescence”. In addition, in data set [2] (probe 10 μM, listed as DDE), the “detection of intracellular ROS” value is “significantly better than DHE”. The “increase in stability versus DHE” value in “physchem” is given as 4-6 fold.
The term half-life denotes how long it takes for the measured level to halve. A lower half-life goes with fast loss. Regarding `CCN1c2cc(N)ccc2-c2ccc(N)cc2C1c1ccccc1` (centres unmarked) [DHE, dihydroethydium, reference compound], the “detection of ROS in tissue explants (LPS versus PBS)” value in data set [3] is “failed to detect ROS”. Also, in [2] (probe 10 μM), the background fluorescence entry is recorded as “large amount of background fluorescence” and the “detection of intracellular ROS” value is reported as “not detected”. Besides, the “detection of ROS (fluorescence) in cells incubated with Ang II” value in data set [2] (probe 100 μM) was “failed to detect ROS”. The “ROS detection in ligated versus sham carotid artery sections” value in the data set on carotid arteries was “increased red fluorescence compared to the sham mice”. In data set [4], this molecule yielded a λem of 590 nm and a λex of 515 nm. In “physchem”, this molecule had a half-life of 0.5 h.
As to `CCN1/C(=C/C=C/C2N(CC)c3ccccc3C2(C)C)C(C)(C)c2ccccc21` (centres unmarked) [Hydro-Cy3], the cellular toxicity entry in the data set with RASM cells was “no cellular toxicity”. Besides, the “integrated total fluorescence intensity” value in data set [3] (aortas of LPS-treated mice (16 mg/kg, 16 hours), probe 15 minutes) was found to be 183.2 RFU/S. The “integrated total fluorescence intensity” value in data set [3] (aortas of LPS-treated mice, probe + TEMPOL) turned out to be 34.9 RFU/S. For the same molecule, the “integrated total fluorescence intensity” value in data set [3] (aortas of PBS-treated mice) came to 46.9 RFU/S. The “detection of ROS in tissue explants (LPS versus PBS)” value in [3] is “significantly higher fluorescence intensity”. The “change in fluorescence on application of TEMPOL” value in [2] (cells treated with probe (100 μM) and Ang II) is recorded as “dramatic decrease in fluorescence”. In addition, the background fluorescence result in [2] (probe 50 μM) is reported as “relatively higher amounts of background fluorescence”. In addition, the “detection of ROS (fluorescence) in cells incubated with Ang II” value in [2] (probe 100 μM) is “intense intracellular fluorescence”. In addition, in data set [2] (probe 100 μM, no Ang II), the “fluorescence of cells incubated with probe alone” value was “significantly less fluorescence”. Besides, in [5], the “concentration range of linear concentration curve against hydroxide radical” value was in the range of 5 to 50 nM and the “detected concentration of hydroxide radical” value is reported as 5 nM. In addition, in [4], the λem was determined as 560 nm, the λex came to 535 nm and the “Fold Increase in Intensity” value is on record as 118 fold. The same molecule had a half-life in “physchem” of approximately 72 h.
Regarding `CCN1/C(=C/C=C/C=C/C=C/C2N(CC)c3ccccc3C2(C)C)C(C)(C)c2ccccc21` (centres unmarked) [Hydro-Cy7], in data set [6], the ROS specificity entry is “specificity for superoxide and hydroxyl radical”. The “fluorescence intensity of LPS-treated mice relative to saline group” value in data set [7] is “approximately two-fold”. Besides, in data set [4], the λem stood at 760 nm, the λex was 735 nm and the “Fold Increase in Intensity” value is recorded as 104 fold. This molecule gave a half-life in the data set “physchem” of approximately 72 h.
Take `CN1/C(=C/C=C/C=C/C2N(C)c3ccc4ccccc4c3C2(C)C)C(C)(C)c2c1ccc1ccccc21` (centres unmarked) [Hydro-IR-676]: in data set [4], the λem is on record as 693 nm, the λex is 675 nm and the “Fold Increase in Intensity” value was 100 fold.

The values are drawn from patent US8628753B2, “Reduced dye probes for the detection of radical oxygen species” (Emory University, priority 2008, dated 2014).
